Results from patent US20130202686A1 (priority 2010, published 2013).
Counter-ions that a name gives are not always drawn.

Experiments:
[1] = rat, in vivo, sc, 5 mg/kg, 4 h
Procedure: For the bupivacaine hydrochloride liposome prepared in Preparation Example 12 and bupivacaine hydrochloride used alone, a drug dynamics test was conducted. Subcutaneous administration into a back part of a rat was conducted in a dose, in terms of the amount of bupivacaine hydrochloride, as set forth in Table 7. After lapses of 1, 24, 72, 120, and 168 hours from the administration of the bupivacaine hydrochloride liposome composition, and after lapses of 0.5, 4, and 24 hours from the administration of the bupivacaine hydrochloride used alone, back region subcutaneous tissue in the administration site was sampled and subjected to a homogenizing treatment. Subsequently, the homogenized solution was treated, the resultant sample solution was subjected to high performance liquid chromatography determination (UV-visible absorptiometer; measurement wavelength 210 nm), and the concentration of bupivacaine hydrochloride remaining in the back region subcutaneous tissue in the administration site was determined. The retention rate of bupivacaine hydrochloride (used alone) in the administration site was lowered to below 1% in four hours after the administration. […] On the other hand, the bupivacaine hydrochloride liposome gave a profile of sustained release from the administration site, and about 35% of bupivacaine hydrochloride remained on the seventh day from the administration.

[2] = Donepezil Liposome Drug Dynamics 2 (plasma concentration of donepezil hydrochloride); conditions: rat, SC 5 mg/kg
Procedure: (Em) of 385 nm was quantified by high performance liquid chromatography using a fluorophotometer.
Furthermore, for comparison, donepezil used alone was administered subcutaneously into a back part of a rat in a dose of 5 mg/kg. For the donepezil used alone, blood was sampled from a tail vein after lapses of 0.5, 1, 5, 10, 30, 120, 480, 1440, and 2880 minutes from the administration. For the liposome compositions, on the other hand, blood was sampled from a tail vein after lapses of 1, 3, 4, 8, 24, 48, 72, 96, 120, 144, 168, 192, 216, 264, 288, 312, and 336 hours from the administration.

Compound | retention rate of bupivacaine hydrochloride in the administration site [1] | concentration in blood after 48 hours [2] | time of maximum concentration in blood [2] [h]
CCCCN1CCCCC1C(=O)Nc1c(C)cccc1C (stereo not drawn) [bupivacaine hydrochloride, Bupivacaine hydrochloride] | below 1% | – | –
COc1cc2c(cc1OC)C(=O)C(CC1CCN(Cc3ccccc3)CC1)C2 (stereo not drawn) [donepezil hydrochloride, Donepezil hydrochloride] | – | below the detection limit | 0.5
